From ChEMBL document CHEMBL1144021, “Molecular determinants of the anticonvulsant felbamate binding site in the N-methyl-D-aspartate receptor” (J Med Chem, 2008)
Active and inactive are the calls of the source. No cut-off for these calls is given here.

Tests used:
[1] = test system: Glutamate receptor ionotropic, NMDA 2B (Homo sapiens), Q13224 [E106A]; experiment: Inhibition of NR2B receptor ATD E106A mutant expressed in Xenopus oocytes assessed as NMDA current at 0.5 mM relative to control; format: cell-based; conditions: Oocyte
[2] = test system: Glutamate receptor ionotropic, NMDA 2B (Homo sapiens), Q13224 [L650A]; experiment: Inhibition of NR2B receptor M3c L650A mutant expressed in Xenopus oocytes assessed as NMDA current at 0.5 mM relative to control; format: cell-based; conditions: Oocyte
[3] = Binding affinity to NR2B receptor M3c […] mutant
[4] = test system: Glutamate receptor ionotropic, NMDA 2B (Homo sapiens), Q13224 [Y646A]; experiment: Inhibition of NR2B receptor M3c Y646A mutant expressed in Xenopus oocytes assessed as NMDA current at 0.5 mM relative to control; format: cell-based; conditions: Oocyte
[5] = test system: Glutamate receptor ionotropic, NMDA 2B (Homo sapiens), Q13224 [K234A]; experiment: Binding affinity to NR2B receptor ATD K234A mutant
[6] = test system: Glutamate receptor ionotropic, NMDA 2B (Homo sapiens), Q13224 [E236A]; experiment: Binding affinity to NR2B receptor ATD E236A mutant
Chain of Glutamate receptor ionotropic, NMDA 2B (Homo sapiens), Q13224 [E236A] (Q13224 whole entry E236A): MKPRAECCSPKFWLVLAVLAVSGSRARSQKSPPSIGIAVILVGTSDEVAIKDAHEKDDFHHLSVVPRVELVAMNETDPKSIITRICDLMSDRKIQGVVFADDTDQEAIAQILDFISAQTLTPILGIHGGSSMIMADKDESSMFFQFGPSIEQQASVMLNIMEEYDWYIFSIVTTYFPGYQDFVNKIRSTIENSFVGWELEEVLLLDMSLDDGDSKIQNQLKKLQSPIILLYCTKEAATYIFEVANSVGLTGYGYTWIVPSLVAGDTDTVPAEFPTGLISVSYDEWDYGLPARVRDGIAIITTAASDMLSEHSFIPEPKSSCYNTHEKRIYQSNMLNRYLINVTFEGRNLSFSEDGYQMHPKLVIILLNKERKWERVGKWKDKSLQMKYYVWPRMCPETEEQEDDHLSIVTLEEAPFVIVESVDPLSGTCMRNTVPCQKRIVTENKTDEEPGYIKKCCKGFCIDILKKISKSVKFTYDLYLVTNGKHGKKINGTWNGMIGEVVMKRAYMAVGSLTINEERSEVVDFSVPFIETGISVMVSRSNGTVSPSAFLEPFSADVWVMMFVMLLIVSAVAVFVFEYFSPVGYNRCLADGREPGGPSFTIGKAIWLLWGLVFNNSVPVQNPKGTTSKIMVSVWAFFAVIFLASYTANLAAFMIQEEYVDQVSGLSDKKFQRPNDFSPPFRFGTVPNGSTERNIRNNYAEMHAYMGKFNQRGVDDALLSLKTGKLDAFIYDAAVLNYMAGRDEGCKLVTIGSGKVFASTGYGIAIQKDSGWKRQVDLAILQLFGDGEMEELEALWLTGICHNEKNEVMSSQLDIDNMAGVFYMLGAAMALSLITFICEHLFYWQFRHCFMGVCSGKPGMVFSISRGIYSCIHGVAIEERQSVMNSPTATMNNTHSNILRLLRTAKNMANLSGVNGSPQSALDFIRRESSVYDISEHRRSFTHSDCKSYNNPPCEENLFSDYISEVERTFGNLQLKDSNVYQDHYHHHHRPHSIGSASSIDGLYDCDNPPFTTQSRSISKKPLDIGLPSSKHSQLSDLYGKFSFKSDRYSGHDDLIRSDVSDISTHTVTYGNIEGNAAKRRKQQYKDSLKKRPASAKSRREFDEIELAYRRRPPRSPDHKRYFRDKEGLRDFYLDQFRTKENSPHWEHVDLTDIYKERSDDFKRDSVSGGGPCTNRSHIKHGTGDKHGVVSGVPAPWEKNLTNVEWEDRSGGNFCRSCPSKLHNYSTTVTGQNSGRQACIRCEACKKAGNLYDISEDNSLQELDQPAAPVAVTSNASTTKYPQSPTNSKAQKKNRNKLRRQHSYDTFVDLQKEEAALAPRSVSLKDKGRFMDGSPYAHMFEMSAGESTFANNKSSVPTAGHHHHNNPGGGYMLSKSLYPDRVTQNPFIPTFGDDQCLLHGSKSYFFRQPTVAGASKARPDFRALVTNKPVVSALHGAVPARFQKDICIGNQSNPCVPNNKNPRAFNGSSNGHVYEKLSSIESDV

[7] = Ratio of Kapp for wild type NR2B receptor to Kapp for ATD NR2B receptor F176A mutant
[8] = test system: Glutamate receptor ionotropic, NMDA 2B (Homo sapiens), Q13224 [F554A]; experiment: Inhibition of NR2B receptor Pre-M1 F554A mutant expressed in Xenopus oocytes assessed as NMDA current at 0.5 mM relative to control; format: cell-based; conditions: Oocyte
[9] = test system: Glutamate receptor ionotropic, NMDA 2B (Homo sapiens), Q13224 [E552A]; experiment: Inhibition of NR2B receptor Pre-M1 E552A mutant expressed in Xenopus oocytes assessed as NMDA current at 0.5 mM relative to control; format: cell-based; conditions: Oocyte
[10] = Binding affinity to NR2B receptor […]/K234A mutant
[11] = test system: Glutamate receptor ionotropic, NMDA 2B (Homo sapiens), Q13224 [L643A]; experiment: Inhibition of NR2B receptor M3c L643A mutant expressed in Xenopus oocytes assessed as NMDA current at 0.5 mM relative to control; format: cell-based; conditions: Oocyte
[12] = test system: Glutamate receptor ionotropic, NMDA 2B (Homo sapiens), Q13224 [[…]]; experiment: Binding affinity to NR2B receptor M3c T647A mutant
[13] = Ratio of Kapp for wild type NR2B receptor to Kapp for NR2B receptor M3c S645A mutant
[14] = Ratio of Kapp for wild type NR2B receptor to Kapp for NR2B receptor S645A/T103A mutant
[15] = test system: Glutamate receptor ionotropic, NMDA 2B (Homo sapiens), Q13224 [E236A]; experiment: Inhibition of NR2B receptor ATD E236A mutant expressed in Xenopus oocytes assessed as NMDA current at 0.5 mM relative to control; format: cell-based; conditions: Oocyte
[16] = test system: Glutamate receptor ionotropic, NMDA 2B (Homo sapiens), Q13224 [L643A,K234A]; experiment: Binding affinity to NR2B receptor L643A/K234A mutant
[17] = Ratio of Kapp for wild type NR2B receptor to Kapp for NR2B receptor ATD E236A mutant
[18] = test system: Glutamate receptor ionotropic, NMDA 2B (Homo sapiens), Q13224 [T544A]; experiment: Inhibition of NR2B receptor Pre-M1 T544A mutant expressed in Xenopus oocytes assessed as NMDA current at 0.5 mM relative to control; format: cell-based; conditions: Oocyte
[19] = Ratio of Kapp for wild type NR2B receptor to Kapp for NR2B receptor S645A/I641A mutant
[20] = Ratio of Kapp for wild type NR2B receptor to Kapp for NR2B receptor ATD T103A mutant
[21] = test system: Glutamate receptor ionotropic, NMDA 2B (Homo sapiens), Q13224 [T103A,K234A]; experiment: Binding affinity to NR2B receptor T103A/K234A mutant
[22] = test system: Glutamate receptor ionotropic, NMDA 2B (Homo sapiens), Q13224 [T103A]; experiment: Binding affinity to NR2B receptor ATD T103A mutant
Chain of Glutamate receptor ionotropic, NMDA 2B (Homo sapiens), Q13224 [T103A] (Q13224 whole entry T103A): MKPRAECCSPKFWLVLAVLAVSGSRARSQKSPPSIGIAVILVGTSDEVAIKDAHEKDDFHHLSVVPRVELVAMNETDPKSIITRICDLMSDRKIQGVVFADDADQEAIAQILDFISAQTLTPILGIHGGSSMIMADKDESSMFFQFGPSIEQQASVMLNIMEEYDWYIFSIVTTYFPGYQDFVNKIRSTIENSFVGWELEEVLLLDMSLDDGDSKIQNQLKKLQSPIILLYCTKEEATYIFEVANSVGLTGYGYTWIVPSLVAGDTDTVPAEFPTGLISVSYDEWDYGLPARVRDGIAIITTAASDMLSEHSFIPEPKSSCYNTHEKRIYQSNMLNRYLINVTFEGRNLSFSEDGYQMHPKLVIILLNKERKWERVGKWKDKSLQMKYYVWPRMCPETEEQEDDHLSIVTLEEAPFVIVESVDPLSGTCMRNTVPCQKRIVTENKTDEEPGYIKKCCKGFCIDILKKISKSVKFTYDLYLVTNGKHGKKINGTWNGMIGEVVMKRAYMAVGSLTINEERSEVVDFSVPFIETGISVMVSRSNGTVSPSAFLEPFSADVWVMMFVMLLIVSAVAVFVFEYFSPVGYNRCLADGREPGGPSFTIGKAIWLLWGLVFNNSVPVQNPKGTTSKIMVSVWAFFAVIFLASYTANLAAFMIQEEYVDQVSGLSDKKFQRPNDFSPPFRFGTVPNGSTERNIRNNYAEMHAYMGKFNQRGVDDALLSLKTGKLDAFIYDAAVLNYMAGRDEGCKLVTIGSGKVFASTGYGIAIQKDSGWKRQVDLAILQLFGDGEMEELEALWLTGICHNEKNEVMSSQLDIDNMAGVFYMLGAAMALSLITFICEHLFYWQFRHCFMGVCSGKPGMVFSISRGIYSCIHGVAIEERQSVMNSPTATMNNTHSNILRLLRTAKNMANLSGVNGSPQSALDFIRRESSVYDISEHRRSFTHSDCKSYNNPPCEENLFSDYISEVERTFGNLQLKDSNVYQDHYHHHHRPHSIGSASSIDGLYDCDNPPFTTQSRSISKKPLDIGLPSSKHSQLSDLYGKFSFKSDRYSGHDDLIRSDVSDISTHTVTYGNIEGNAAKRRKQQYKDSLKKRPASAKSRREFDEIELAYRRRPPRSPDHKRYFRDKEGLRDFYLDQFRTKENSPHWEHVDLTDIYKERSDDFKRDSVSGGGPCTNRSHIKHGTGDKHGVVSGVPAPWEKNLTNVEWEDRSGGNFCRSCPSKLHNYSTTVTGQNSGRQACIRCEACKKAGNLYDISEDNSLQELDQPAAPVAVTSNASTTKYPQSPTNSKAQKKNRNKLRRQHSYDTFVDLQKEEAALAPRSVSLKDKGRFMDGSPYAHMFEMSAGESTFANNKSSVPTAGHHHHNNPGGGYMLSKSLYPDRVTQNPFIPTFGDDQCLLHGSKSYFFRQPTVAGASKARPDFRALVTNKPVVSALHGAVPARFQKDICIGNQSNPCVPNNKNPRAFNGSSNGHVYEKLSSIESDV

[23] = test system: Glutamate receptor ionotropic, NMDA 2B (Homo sapiens), Q13224 [A644C]; experiment: Inhibition of NR2B receptor M3c A644C mutant expressed in Xenopus oocytes assessed as NMDA current at 0.5 mM relative to control; format: cell-based; conditions: Oocyte
[24] = Ratio of Kapp for wild type NR2B receptor to Kapp for NR2B receptor L643A/T103A mutant
[25] = test system: Glutamate receptor ionotropic, NMDA 2B (Homo sapiens), Q13224 [S546A]; experiment: Inhibition of NR2B receptor Pre-M1 S546A mutant expressed in Xenopus oocytes assessed as NMDA current at 0.5 mM relative to control; format: cell-based; conditions: Oocyte
[26] = test system: Glutamate receptor ionotropic, NMDA 2B (Homo sapiens), Q13224 [T103A]; experiment: Inhibition of NR2B receptor ATD T103A mutant expressed in Xenopus oocytes assessed as NMDA current at 0.5 mM relative to control; format: cell-based; conditions: Oocyte
[27] = test system: Glutamate receptor ionotropic, NMDA 2B (Homo sapiens), Q13224 [D101A]; experiment: Binding affinity to NR2B receptor ATD D101A mutant
[28] = test system: Glutamate receptor ionotropic, NMDA 2B (Homo sapiens), Q13224 [F182A]; experiment: Inhibition of NR2B receptor ATD F182A mutant expressed in Xenopus oocytes assessed as NMDA current at 0.5 mM relative to control; format: cell-based; conditions: Oocyte
[29] = molecular target: Glutamate receptor ionotropic, NMDA 2B (Homo sapiens) (UniProt Q13224); experiment: Inhibition of wild type NR2B receptor expressed in Xenopus oocytes assessed as NMDA current at 0.5 mM relative to control; format: cell-based; conditions: Oocyte
[30] = Binding affinity to NR2B receptor […]/S645A mutant
[31] = test system: Glutamate receptor ionotropic, NMDA 2B (Homo sapiens), Q13224 [A651T]; experiment: Inhibition of NR2B receptor M3c A651T mutant expressed in Xenopus oocytes assessed as NMDA current at 0.5 mM relative to control; format: cell-based; conditions: Oocyte
[32] = test system: Glutamate receptor ionotropic, NMDA 2B (Homo sapiens), Q13224 [I641A]; experiment: Inhibition of NR2B receptor M3c I641A mutant expressed in Xenopus oocytes assessed as NMDA current at 0.5 mM relative to control; format: cell-based; conditions: Oocyte
[33] = test system: Glutamate receptor ionotropic, NMDA 2B (Homo sapiens), Q13224 [S555A]; experiment: Inhibition of NR2B receptor Pre-M1 S555A mutant expressed in Xenopus oocytes assessed as NMDA current at 0.5 mM relative to control; format: cell-based; conditions: Oocyte
[34] = Ratio of Kapp for wild type NR2B receptor to Kapp for NR2B receptor ATD T233A mutant
[35] = test system: Glutamate receptor ionotropic, NMDA 2B (Homo sapiens), Q13224 [W559A]; experiment: Inhibition of NR2B receptor Pre-M1 W559A mutant expressed in Xenopus oocytes assessed as NMDA current at 0.5 mM relative to control; format: cell-based; conditions: Oocyte
Chain of Glutamate receptor ionotropic, NMDA 2B (Homo sapiens), Q13224 [W559A] (Q13224 whole entry W559A): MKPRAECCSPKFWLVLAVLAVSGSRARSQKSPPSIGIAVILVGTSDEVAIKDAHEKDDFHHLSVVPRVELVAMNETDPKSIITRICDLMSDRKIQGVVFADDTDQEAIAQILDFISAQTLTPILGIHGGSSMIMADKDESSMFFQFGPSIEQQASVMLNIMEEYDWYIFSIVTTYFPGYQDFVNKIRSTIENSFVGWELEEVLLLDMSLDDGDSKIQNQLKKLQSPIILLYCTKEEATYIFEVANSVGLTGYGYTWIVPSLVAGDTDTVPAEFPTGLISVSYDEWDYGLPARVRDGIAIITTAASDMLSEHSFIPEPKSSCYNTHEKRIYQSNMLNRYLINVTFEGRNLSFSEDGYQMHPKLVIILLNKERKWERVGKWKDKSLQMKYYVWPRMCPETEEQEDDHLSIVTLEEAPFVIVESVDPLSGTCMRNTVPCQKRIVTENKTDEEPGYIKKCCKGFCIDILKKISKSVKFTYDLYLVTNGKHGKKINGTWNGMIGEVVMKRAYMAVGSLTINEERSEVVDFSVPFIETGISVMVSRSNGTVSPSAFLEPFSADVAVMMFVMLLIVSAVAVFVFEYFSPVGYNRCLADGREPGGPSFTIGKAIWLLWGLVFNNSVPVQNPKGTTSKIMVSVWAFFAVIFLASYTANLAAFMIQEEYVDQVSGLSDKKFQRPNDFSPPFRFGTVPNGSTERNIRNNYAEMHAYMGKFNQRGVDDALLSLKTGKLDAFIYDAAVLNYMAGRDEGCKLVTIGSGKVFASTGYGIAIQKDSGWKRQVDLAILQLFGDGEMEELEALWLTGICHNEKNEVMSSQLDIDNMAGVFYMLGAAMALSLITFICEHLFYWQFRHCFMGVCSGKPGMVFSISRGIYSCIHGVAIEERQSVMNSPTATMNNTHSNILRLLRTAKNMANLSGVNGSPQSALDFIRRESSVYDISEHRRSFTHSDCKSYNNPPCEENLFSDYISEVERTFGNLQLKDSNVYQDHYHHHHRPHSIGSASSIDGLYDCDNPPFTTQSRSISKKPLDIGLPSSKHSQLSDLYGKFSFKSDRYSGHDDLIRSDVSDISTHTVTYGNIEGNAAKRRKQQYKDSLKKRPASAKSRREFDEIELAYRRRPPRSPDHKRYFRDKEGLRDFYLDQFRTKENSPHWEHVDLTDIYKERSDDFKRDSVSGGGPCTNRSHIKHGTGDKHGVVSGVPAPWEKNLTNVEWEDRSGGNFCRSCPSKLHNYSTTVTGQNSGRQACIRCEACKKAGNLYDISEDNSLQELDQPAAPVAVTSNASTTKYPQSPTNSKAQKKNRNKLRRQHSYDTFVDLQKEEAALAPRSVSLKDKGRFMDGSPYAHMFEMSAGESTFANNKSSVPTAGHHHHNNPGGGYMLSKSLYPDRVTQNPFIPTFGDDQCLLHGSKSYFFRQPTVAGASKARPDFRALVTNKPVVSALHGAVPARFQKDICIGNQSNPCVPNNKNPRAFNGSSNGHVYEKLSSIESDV

[36] = test system: Glutamate receptor ionotropic, NMDA 2B (Homo sapiens), Q13224 [S645A,K234A]; experiment: Binding affinity to NR2B receptor S645A/K234A mutant

NC(=O)OCC(COC(N)=O)c1ccccc1
inhibition [1]: 74% | inhibition [2]: 76% | Kapp [3]: 5.64 mM | inhibition [4]: 74% | Kapp [5]: 4.31 mM | Kapp [6]: 2.18 mM | Ratio Ki(app) [7]: 3.2 | Activity [8]: inactive | inhibition [9]: 77% | Kapp [10]: 7 mM | inhibition [11]: 90% | Kapp [12]: 6.5 mM | Ratio Ki(app) [13]: 4.9 | Ratio Ki(app) [14]: 7.2 | inhibition [15]: 83% | Kapp [16]: 6.33 mM | Ratio Ki(app) [17]: 2.5 | inhibition [18]: 69% | Ratio Ki(app) [19]: 5.1 | Ratio Ki(app) [20]: 4.8 | Kapp [21]: 4.14 mM | Kapp [22]: 4.21 mM | inhibition [23]: 73% | Ratio Ki(app) [24]: 5.8 | inhibition [25]: 64% | inhibition [26]: 85% | Kapp [27]: 2.76 mM | inhibition [28]: 72% | inhibition [29]: 68% | Kapp [30]: 7.04 mM | inhibition [31]: 72% | inhibition [32]: 84% | inhibition [33]: 72% | Ratio Ki(app) [34]: 2.9 | Activity [35]: inactive | Kapp [36]: 7.1 mM
